Source: PMC11254100 (Angewandte Chemie (International ed. in English), 2024)

Molecular target: CAHEX:6HIS (Human immunodeficiency virus type 1 group M subtype B, UniProt P12493, A146C/E177C/M317A/W316A)
Conditions: BLI, CAHEX:6HIS immobilized on HIS-affinity probes

Lenacapvir
koff: 2.978 ± 0.015 x10^−4 s^−1 | kon: 1.040 ± 0.007 x10^4 M^−1s^−1
